Reference: patent US8647867B2, “Cell cultivation method and cell culture” (National University Corportion Okayama University, priority 2005, dated 2014)

Key:
Assay type in all cases: cell-based
porcine pancreatic islet = experiment: Morphological study of cultured porcine pancreatic islet by electron microscope (morphological criteria, points); details: porcine pancreatic islets, day 5 of culture
Method: (§1) As the inspection method of cultured pancreatic islets, a method is mentioned in which the following 4 items as morphological criteria are evaluated at 5 levels (1 to 5 points) (see, literature: Matsumoto S, Qualley S A, Goel S, et al., Effect of the two-layer (University of Wisconsin solution-Perfluorochemical plus 02) method of pancreas preservation on human islet isolation as assessed by Edmonton isolation protocol. Transplantation 2002; 74: 1414).
(§2) Evaluation is performed at 5 levels of “flat: 1 point”, “approximately flat: 2 points”, “irregularly spherical: 3 points”, “approximately spherical: 4 points”, and “spherical: 5 points”.
(§3) Evaluation is performed at 5 levels of “irregular: 1 point”, “approximately irregular: 2 points”, “somewhat well-rounded: 3 points”, “approximately well-rounded: 4 points”, and “well-rounded: 5 points”. Among these, “well-rounded: 5 points” is most preferable.
(§4) Evaluation is performed at 5 levels of “fragmented: 1 point”, “approximately fragmented: 2 points”, “somewhat solid/compact: 3 points”, “approximately solid/compact: 4 points”, and “solid/compact: 5 points”. Among these, “solid/compact: 5 points” is most preferable.
Evaluation is performed at 5 levels of “smaller than 100 μm for individual cultured pancreatic islets (all <100 μm): 1 point”, “100 to 150 μm for individual cultured pancreatic islets: 2 points”, “[…] for individual cultured pancreatic islets: 3 points”, “150 to 200 μm for individual cultured pancreatic islets: 4 points”, and “larger than 200 μm for at least 10% of individual cultured pancreatic islets (>10%>200 μm): 5 points”. Among these, “larger than 200 μm for at least 10% of individual cultured pancreatic islets: 5 points” is most preferable.
In the above-described criteria, the shape “flat” means that when a pancreatic islet is considered to be elliptic sphere, the ratio of major axis/minor axis is at least 10, the shape “approximately flat” means that the above-described ratio of major axis/minor axis is at least 5 and less than 10, the shape “irregularly spherical” means that the above-described ratio of major axis/minor axis is at least 2 and less than 5, the shape “approximately spherical” means that the above-described ratio of major axis/minor axis is at least 1.2 and less than 2, and the shape “spherical” means that the above-described ratio of major axis/minor axis is less than 1.2. […]

porcine hepatocyte [1] = experiment: Metabolic ability of lidocaine in cultured porcine hepatocyte; parameters: lidocaine metabolic rate: unit not given beside the values; details: for lidocaine metabolic rate: lidocaine 1 mg/ml, after 24 hours
porcine hepatocyte [2] = experiment: Metabolic ability of ammonia in cultured porcine hepatocyte; parameters: ammonia metabolic rate: unit not given beside the values; details: for ammonia metabolic rate: ammonium sulfate 0.56 mM, after 24 hours
human pancreatic islet [3] = experiment: Insulin production ability of cultured human pancreatic islet
Method: Healthy isolated human pancreatic islets provided from Alberta University in Canada (those skilled in the art can obtain them from Canada, Alberta University, human pancreatic islet transplantation program, Dr. Jonathan R T. Lakey) were seeded in a T25 10 culture flask.
Insulin production abilities of cultured human pancreatic islet were determined and compared between groups A and B. Using low glucose DMEM (glucose concentration: […]) (available from GIBCO, Oakland, N.J.) supplemented with 10% FCS, nicotineamide 10 mM and penicillin G/streptomycin, cells were cultured for 24 hours until 60% confluency (low glucose). Then, the medium was changed for high glucose DMEM (glucose concentration: […]) (available from GIBCO, Oakland, N.J.) supplemented with 10% FCS, nicotineamide 10 mM and penicillin G/streptomycin, and cells were cultured for 6 hours (high glucose). After high glucose culture, the medium was exchanged for low glucose DMEM and cells were cultured for 6 hours (low glucose (after)). After respective culture operations, the production amount of insulin in the culture medium (μg/l) was determined by an immunostaining method using a rabbit anti-human insulin antibody (available from DakoCytomation K. K., Kyoto, Japan).

human pancreatic islet [4] = experiment: Morphological study of cultured human pancreatic islet by electron microscope (morphological criteria, points); details: human pancreatic islets, day 5 of culture
Method: as §1, §2, §3, §4
Evaluation is performed at 5 levels of “smaller than 100 μm for individual cultured pancreatic islets (all <100 μm): 1 point”, “100 to 150 μm for individual cultured pancreatic islets: 2 points”, “[…] for individual cultured pancreatic islets: 3 points”, “150 to 200 μm for individual cultured pancreatic islets: 4 points”, and “larger than 200 μm for at least 10% of individual cultured pancreatic islets (>10%>200 μm): 5 points”. Among these, “larger than 200 μm for at least 10% of individual cultured pancreatic islets: 5 points” is most preferable. […]

[5] = porcine hepatocyte, culture with insert, days 1, 7, 14 and 21
[6] = porcine hepatocyte, culture without insert, days 1, 7 and 14

CC(=O)N[C@@H](CCCNC(=N)N)C(=O)N[C@@H](C)C(=O)N[C@@H](CC(=O)O)C(=O)N[C@@H](C)C(=O)N[C@@H](CCCNC(=N)N)C(=O)N[C@@H](C)C(=O)N[C@@H](CC(=O)O)C(=O)N[C@@H](C)C(=O)N[C@@H](CCCNC(=N)N)C(=O)N[C@@H](C)C(=O)N[C@@H](CC(=O)O)C(=O)N[C@@H](C)C(=O)N[C@@H](CCCNC(=N)N)C(=O)N[C@@H](C)C(=O)N[C@@H](CC(=O)O)C(=O)N[C@@H](C)C(N)=O [Group A, Ac-(RADA)4-CONH2]
pancreatic islet morphology: 1. shape (porcine pancreatic islet): 5 (spherical: 5 points)
pancreatic islet morphology: 2. border shape (porcine pancreatic islet): 5 (well-rounded: 5 points)
pancreatic islet morphology: 3. integrity (porcine pancreatic islet): 5 (solid/compact: 5 points)
pancreatic islet morphology: sum of the evaluation values (porcine pancreatic islet): 18 points
lidocaine metabolic rate (porcine hepatocyte [1]; Table 2(a), culture without insert, day 1 of culture): 40.0
lidocaine metabolic rate (porcine hepatocyte [1]; Table 2(a), culture without insert, day 7 of culture): 31.9
lidocaine metabolic rate (porcine hepatocyte [1]; Table 2(a), culture without insert, day 14 of culture): 19.1
lidocaine metabolic rate (porcine hepatocyte [1]; Table 2(c), culture with insert, day 1 of culture): 44.0
lidocaine metabolic rate (porcine hepatocyte [1]; Table 2(c), culture with insert, day 7 of culture): 36.9
lidocaine metabolic rate (porcine hepatocyte [1]; Table 2(c), culture with insert, day 14 of culture): 32.4
lidocaine metabolic rate (porcine hepatocyte [1]; Table 2(c), culture with insert, day 21 of culture): 30.2
lidocaine metabolic rate (porcine hepatocyte [1]; Table 2b, culture without insert, day 1 of culture): 40.8
lidocaine metabolic rate (porcine hepatocyte [1]; Table 2b, culture without insert, day 7 of culture): 32.2
lidocaine metabolic rate (porcine hepatocyte [1]; Table 2b, culture without insert, day 14 of culture): 21.0
lidocaine metabolic rate as compared with collagen type I (monolayer) (group B), Matrigel (group C) and collagen sandwich (group D) (porcine hepatocyte [1]; [5]): significantly better
lidocaine metabolic rate as compared with collagen type I (monolayer) (group B) (porcine hepatocyte [1]; [6]): significantly better
lidocaine metabolic rate as compared with collagen type I (monolayer) (group B) and Matrigel (group C) (porcine hepatocyte [1]; [6]): significantly better
ammonia metabolic rate (porcine hepatocyte [2]; Table 1(a), culture without insert, day 1 of culture): 58.6
ammonia metabolic rate (porcine hepatocyte [2]; Table 1(a), culture without insert, day 7 of culture): 43.8
ammonia metabolic rate (porcine hepatocyte [2]; Table 1(a), culture without insert, day 14 of culture): 26.4
ammonia metabolic rate (porcine hepatocyte [2]; Table 1(c), culture with insert, day 1 of culture): 61.6
ammonia metabolic rate (porcine hepatocyte [2]; Table 1(c), culture with insert, day 7 of culture): 49.6
ammonia metabolic rate (porcine hepatocyte [2]; Table 1(c), culture with insert, day 14 of culture): 38.2
ammonia metabolic rate (porcine hepatocyte [2]; Table 1(c), culture with insert, day 21 of culture): 36.1
ammonia metabolic rate (porcine hepatocyte [2]; Table 1b, culture without insert, day 1 of culture): 59.8
ammonia metabolic rate (porcine hepatocyte [2]; Table 1b, culture without insert, day 7 of culture): 44.3
ammonia metabolic rate (porcine hepatocyte [2]; Table 1b, culture without insert, day 14 of culture): 33.3
ammonia metabolic rate as compared with collagen type I (monolayer) (group B), Matrigel (group C) and collagen sandwich (group D) (porcine hepatocyte [2]; [5]): significantly better
ammonia metabolic rate as compared with collagen type I (monolayer) (group B) (porcine hepatocyte [2]; [6]): significantly better
ammonia metabolic rate as compared with collagen type I (monolayer) (group B) and Matrigel (group C) (porcine hepatocyte [2]; [6]): significantly better
production amount of insulin in the culture medium (human pancreatic islet [3]; human islets (10 seeded), day 1 of culture, low glucose (100 g/l, 24 hours)): 0.60 µg/L
production amount of insulin in the culture medium (human pancreatic islet [3]; human islets, day 1 of culture, high glucose (450 g/l, 6 hours)): 1.89 µg/L
production amount of insulin in the culture medium (human pancreatic islet [3]; human islets, day 1 of culture, low glucose (after), 6 hours): 1.13 µg/L
production amount of insulin in the culture medium (human pancreatic islet [3]; human islets, day 3 of culture, high glucose (450 g/l, 6 hours)): 1.68 µg/L
production amount of insulin in the culture medium (human pancreatic islet [3]; human islets, day 3 of culture, low glucose (100 g/l, 24 hours)): 0.58 µg/L
production amount of insulin in the culture medium (human pancreatic islet [3]; human islets, day 3 of culture, low glucose (after), 6 hours): 1.11 µg/L
production amount of insulin in the culture medium (human pancreatic islet [3]; human islets, day 5 of culture, high glucose (450 g/l, 6 hours)): 1.43 µg/L
production amount of insulin in the culture medium (human pancreatic islet [3]; human islets, day 5 of culture, low glucose (100 g/l, 24 hours)): 0.51 µg/L
production amount of insulin in the culture medium (human pancreatic islet [3]; human islets, day 5 of culture, low glucose (after), 6 hours): 1.10 µg/L
production amount of insulin in the culture medium (human pancreatic islet [3]; human islets, day 7 of culture, high glucose (450 g/l, 6 hours)): 0.76 µg/L
production amount of insulin in the culture medium (human pancreatic islet [3]; human islets, day 7 of culture, low glucose (100 g/l, 24 hours)): 0.41 µg/L
production amount of insulin in the culture medium (human pancreatic islet [3]; human islets, day 7 of culture, low glucose (after), 6 hours): 0.54 µg/L
amount of insulin secreted in high glucose concentration (response to glucose concentration) (human pancreatic islet [3]; human pancreatic islet, day 7 of culture): increased
pancreatic islet morphology: 1. shape (human pancreatic islet [4]): 5 (spherical: 5 points)
pancreatic islet morphology: 3. integrity (human pancreatic islet [4]): 5 (solid/compact: 5 points)
pancreatic islet morphology: sum of the evaluation values (human pancreatic islet [4]): 16 points
